The target in assay [1] is T1, Vascular endothelial growth factor receptor 2 (Homo sapiens, UniProt P35968). The assay is described as follows: Inhibition of VEGF stimulated phosphorylation of KDR on tyrosine residues in human kidney cells expressing vascular endothelial growth factor receptor 2. Format: cell-based.
In assay [2] the target is T1, Vascular endothelial growth factor receptor 2. The assay is described as follows: Intrinsic potency against VEGF stimulated KDR phosphorylation. Format: functional.
Assay [3] concerns the target Vascular endothelial growth factor receptor 2 and 3 (KDR and Flt-4) (Homo sapiens) (UniProt P35916+P35968). The assay is described as follows: Selectivity of for VEGF-receptor 2 over fms-like tyrosine kinase-4, VEGF-receptor 3. Format: protein assay.
Assay [4] deals with Vascular endothelial growth factor receptor 1 and 2 (Flt-1 and KDR) (Homo sapiens) (UniProt P17948+P35968). Nature of the assay: Selectivity for VEGF-receptor 2 over fms-like tyrosine kinase 1, VEGF-receptor 1. Format: protein assay.
Assay [5] concerns the target VEGF-receptor 2 and PDGF-receptor beta (KDR and PDGFR beta) (Homo sapiens) (UniProt P09619+P35968). Nature of the assay: Selectivity for VEGFR2 over platelet-derived growth factor receptor beta.
Assay [6] has as its target VEGF-receptor 2 and tyrosine-protein kinase SRC (Homo sapiens) (UniProt P12931+P35968). Nature of the assay: Selectivity for VEGF-receptor 2 over c-Src tyrosine kinase. Format: protein assay.
For assay [7], the target named is VEGF-receptor 2 and Fibroblast growth factor receptor 1 (Homo sapiens) (UniProt P35968+P11362). Nature of the assay: Selectivity for VEGF-receptor 2 over fibroblast growth factor receptor 1. Format: protein assay.
Chain of VEGF-receptor 2 and Fibroblast growth factor receptor 1 (Homo sapiens) (P11362 whole entry, looked up): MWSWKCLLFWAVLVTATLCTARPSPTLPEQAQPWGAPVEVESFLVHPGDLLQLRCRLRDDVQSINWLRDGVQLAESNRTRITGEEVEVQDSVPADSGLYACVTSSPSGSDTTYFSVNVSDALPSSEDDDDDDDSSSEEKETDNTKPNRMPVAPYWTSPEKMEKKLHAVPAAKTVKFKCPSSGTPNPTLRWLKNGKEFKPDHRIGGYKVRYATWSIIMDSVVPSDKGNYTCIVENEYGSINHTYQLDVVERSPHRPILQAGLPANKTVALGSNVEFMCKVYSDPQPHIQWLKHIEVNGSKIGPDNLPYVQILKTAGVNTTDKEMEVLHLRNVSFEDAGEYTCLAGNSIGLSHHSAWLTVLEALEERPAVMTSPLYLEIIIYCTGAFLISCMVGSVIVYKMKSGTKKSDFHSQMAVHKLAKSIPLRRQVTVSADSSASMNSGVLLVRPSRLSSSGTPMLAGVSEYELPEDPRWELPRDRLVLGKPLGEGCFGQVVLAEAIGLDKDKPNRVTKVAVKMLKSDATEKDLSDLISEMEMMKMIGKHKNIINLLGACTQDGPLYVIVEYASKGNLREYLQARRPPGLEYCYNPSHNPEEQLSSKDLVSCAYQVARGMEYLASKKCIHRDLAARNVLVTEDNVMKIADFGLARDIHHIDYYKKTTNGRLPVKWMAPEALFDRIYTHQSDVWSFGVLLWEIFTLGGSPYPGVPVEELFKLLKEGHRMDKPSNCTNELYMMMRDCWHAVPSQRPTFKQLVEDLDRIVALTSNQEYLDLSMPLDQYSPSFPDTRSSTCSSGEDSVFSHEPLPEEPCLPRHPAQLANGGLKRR
Chain of VEGF-receptor 2 and Fibroblast growth factor receptor 1 (Homo sapiens) (P35968 whole entry, looked up): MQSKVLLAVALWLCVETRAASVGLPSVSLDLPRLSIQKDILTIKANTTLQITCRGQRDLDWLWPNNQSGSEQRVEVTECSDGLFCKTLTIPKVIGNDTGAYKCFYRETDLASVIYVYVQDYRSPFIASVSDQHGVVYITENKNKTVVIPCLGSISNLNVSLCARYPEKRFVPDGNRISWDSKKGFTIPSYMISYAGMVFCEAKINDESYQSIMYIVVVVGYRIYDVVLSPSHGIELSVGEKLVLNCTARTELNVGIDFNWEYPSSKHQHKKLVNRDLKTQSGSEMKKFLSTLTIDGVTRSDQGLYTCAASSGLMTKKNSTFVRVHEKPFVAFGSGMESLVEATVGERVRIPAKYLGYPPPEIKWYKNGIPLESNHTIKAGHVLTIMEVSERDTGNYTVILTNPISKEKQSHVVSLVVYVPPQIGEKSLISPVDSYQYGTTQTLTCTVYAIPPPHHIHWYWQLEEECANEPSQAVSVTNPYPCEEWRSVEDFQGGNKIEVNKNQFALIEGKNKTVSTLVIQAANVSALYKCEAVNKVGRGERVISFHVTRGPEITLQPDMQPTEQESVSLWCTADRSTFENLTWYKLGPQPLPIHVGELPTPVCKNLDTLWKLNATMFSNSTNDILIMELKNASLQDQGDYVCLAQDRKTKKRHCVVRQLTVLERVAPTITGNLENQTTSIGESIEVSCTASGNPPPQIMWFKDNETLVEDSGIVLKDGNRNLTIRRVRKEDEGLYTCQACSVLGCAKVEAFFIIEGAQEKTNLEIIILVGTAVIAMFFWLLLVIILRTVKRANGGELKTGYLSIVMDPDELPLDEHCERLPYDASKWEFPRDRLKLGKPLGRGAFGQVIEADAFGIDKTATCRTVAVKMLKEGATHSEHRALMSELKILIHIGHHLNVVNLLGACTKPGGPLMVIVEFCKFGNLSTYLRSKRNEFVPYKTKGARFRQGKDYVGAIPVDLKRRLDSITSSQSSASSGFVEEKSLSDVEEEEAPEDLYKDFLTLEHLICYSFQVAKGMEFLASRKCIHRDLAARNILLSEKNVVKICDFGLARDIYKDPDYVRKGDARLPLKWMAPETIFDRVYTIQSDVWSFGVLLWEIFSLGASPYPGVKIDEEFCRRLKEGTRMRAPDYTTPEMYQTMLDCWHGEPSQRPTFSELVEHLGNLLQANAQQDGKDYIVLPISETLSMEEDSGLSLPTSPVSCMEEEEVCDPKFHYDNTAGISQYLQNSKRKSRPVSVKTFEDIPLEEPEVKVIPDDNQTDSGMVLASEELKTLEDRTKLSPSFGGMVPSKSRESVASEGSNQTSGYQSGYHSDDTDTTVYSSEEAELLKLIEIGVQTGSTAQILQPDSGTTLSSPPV
The target in assay [8] is T1, Vascular endothelial growth factor receptor 2. The assay is described as follows: Inhibition of phosphorylation of poly-Glu/Tyr (4:1) peptide substrate by VEGF-receptor 2 (KDR) kinase.
Assay [9] concerns the target Fibroblast growth factor receptor 4 (Homo sapiens) (UniProt P22455). The assay is described as follows: Selectivity for fibroblast growth factor receptor 4.

T1 sequence (P35968 whole entry): as the sequence (P35968 whole entry, looked up) above
Chain of Vascular endothelial growth factor receptor 2 and 3 (KDR and Flt-4) (Homo sapiens) (P35916 whole entry, looked up): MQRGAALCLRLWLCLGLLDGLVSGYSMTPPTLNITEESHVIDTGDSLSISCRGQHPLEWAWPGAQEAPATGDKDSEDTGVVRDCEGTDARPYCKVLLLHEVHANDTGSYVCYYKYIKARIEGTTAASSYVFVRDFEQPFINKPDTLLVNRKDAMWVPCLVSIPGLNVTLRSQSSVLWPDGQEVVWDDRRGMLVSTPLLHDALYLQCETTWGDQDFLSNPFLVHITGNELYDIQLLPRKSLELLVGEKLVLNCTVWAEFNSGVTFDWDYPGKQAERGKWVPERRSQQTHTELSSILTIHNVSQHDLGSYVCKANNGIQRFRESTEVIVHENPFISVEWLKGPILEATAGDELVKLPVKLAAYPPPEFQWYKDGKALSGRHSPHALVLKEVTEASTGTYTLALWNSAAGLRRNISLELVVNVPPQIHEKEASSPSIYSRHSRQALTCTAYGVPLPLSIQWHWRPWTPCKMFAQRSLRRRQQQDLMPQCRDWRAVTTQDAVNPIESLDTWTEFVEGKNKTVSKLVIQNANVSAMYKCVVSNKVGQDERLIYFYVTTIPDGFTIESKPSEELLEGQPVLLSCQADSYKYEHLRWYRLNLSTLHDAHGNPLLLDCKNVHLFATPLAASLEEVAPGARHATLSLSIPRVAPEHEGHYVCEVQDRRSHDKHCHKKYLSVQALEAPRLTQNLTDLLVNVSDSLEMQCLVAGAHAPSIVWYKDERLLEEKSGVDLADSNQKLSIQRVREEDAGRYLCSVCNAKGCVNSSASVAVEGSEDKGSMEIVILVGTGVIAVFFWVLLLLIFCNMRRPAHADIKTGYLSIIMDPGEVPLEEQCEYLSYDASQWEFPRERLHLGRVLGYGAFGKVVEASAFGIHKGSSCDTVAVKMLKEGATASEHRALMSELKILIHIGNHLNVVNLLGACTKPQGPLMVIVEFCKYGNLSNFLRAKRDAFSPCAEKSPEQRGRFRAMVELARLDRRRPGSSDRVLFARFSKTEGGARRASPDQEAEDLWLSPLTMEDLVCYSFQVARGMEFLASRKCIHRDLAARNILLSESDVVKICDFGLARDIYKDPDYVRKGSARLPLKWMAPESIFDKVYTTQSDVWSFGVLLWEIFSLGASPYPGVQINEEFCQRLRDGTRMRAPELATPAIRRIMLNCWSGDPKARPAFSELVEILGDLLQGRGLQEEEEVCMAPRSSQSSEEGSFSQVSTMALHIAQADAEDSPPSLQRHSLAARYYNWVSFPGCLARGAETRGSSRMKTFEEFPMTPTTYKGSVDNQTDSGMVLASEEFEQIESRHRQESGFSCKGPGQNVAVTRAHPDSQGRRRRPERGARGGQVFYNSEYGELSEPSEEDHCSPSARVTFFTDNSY
Chain of Vascular endothelial growth factor receptor 2 and 3 (KDR and Flt-4) (Homo sapiens) (P35968 whole entry, looked up): as the sequence (P35968 whole entry, looked up) above
Chain of VEGF-receptor 2 and PDGF-receptor beta (KDR and PDGFR beta) (Homo sapiens) (P09619 whole entry, looked up): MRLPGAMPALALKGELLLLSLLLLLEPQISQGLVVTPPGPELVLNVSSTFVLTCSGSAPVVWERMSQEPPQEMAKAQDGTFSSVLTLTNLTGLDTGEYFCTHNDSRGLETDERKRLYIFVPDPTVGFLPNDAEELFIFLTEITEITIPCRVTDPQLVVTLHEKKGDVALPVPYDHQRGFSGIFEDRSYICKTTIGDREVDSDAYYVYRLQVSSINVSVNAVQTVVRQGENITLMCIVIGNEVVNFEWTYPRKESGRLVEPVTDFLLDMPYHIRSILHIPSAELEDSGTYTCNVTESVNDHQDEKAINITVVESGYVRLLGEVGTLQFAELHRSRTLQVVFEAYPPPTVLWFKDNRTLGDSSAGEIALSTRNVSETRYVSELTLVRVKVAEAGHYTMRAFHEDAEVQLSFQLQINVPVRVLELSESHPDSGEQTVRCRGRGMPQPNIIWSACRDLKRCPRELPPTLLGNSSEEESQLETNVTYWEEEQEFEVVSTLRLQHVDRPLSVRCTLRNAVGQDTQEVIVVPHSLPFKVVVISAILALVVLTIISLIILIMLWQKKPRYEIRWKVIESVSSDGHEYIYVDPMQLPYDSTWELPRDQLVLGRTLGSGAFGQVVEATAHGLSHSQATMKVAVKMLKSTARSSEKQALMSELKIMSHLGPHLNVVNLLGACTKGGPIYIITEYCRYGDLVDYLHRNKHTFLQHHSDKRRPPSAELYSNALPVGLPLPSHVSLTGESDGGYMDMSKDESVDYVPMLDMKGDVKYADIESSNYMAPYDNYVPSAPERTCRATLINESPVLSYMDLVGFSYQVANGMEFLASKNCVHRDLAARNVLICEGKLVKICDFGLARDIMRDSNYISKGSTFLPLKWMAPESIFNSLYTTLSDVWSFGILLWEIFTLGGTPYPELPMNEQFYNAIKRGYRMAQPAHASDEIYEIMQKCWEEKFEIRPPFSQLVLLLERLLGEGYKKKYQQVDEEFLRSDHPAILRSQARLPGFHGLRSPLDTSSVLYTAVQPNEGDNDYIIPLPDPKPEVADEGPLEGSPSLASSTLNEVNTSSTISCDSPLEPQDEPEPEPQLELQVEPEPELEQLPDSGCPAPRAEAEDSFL
Chain of VEGF-receptor 2 and PDGF-receptor beta (KDR and PDGFR beta) (Homo sapiens) (P35968 whole entry, looked up): as the sequence (P35968 whole entry, looked up) above

For orientation: IC50 means the concentration that inhibits the measured activity by half. Read a low IC50 as inhibition by little substance. `c1ccc(-c2ccn3c(-c4ccccc4)cnc3c2)cc1` registered an IC50 in assay [1] of 98 nM.

For the compound `CN(C)CC1CCCN(CCCn2ccc(-c3ccn4c(-c5ccccc5)cnc4c3)cc2=O)C1` (configuration not stated), the IC50 is 280 nM in [2] and 67 nM in assay [1].

Compound `NC(=O)N1CCN(Cc2ccc(-c3ccn4c(-c5ccccc5)cnc4c3)cc2)CC1` registered an IC50 in [1] of 69 nM. This lies in the double-digit nanomolar range.

For the compound `CNC(=O)N1CCN(Cc2ccc(-c3ccn4c(-c5ccccc5)cnc4c3)cc2)CC1`, the values for the IC50 in [2] and in assay [1] were 410 nM and 52 nM, respectively.

On to `O=c1cc(-c2ccn3c(-c4ccccc4)cnc3c2)ccn1CCCN1CCCCC1`, for which the Selectivity in assay [3] came to 2.8; in assay [4], 3.1; in assay [5], 1; in assay [6] it was 68; in assay [7], 60. Further, the IC50 came to 51 nM in assay [2] and 28 nM in [1].

In [1], `c1ccc(-c2ccn3c(-c4cccnc4)cnc3c2)cc1` yielded an IC50 of 930 nM.

For `COc1cccc(-c2cnc3cc(-c4ccccc4)ccn23)n1`, the IC50 in assay [1] came to 242 nM.

In turn, `c1ccc(-c2ccn3c(-c4cnsc4)cnc3c2)cc1` registered an IC50 in [1] of 50 nM.

`CS(=O)(=O)N1CCN(Cc2ccc(-c3ccn4c(-c5ccccc5)cnc4c3)cc2)CC1`: the IC50 in assay [2] stood at 110 nM; in [1], 13 nM.

The compound `COCCN(C)CCCn1ccc(-c2ccn3c(-c4ccccc4)cnc3c2)cc1=O` yielded an IC50 in assay [1] of 96 nM.

The compound `COc1ccc(-c2cnc3cc(-c4ccccc4)ccn23)cn1` yielded an IC50 in assay [8] of 2840 nM.

In the case of `c1ccc(-c2ccn3c(-c4ccncc4)cnc3c2)cc1`, half-maximal inhibition in [1] (IC50) was put at 145 nM.

Turning to `c1ccc(-c2ccn3c(-c4nccs4)cnc3c2)cc1`, the Selectivity amounted to 23 in assay [9]; 1.7 in [3]; 7 in assay [4]; 1.4 in assay [5]; 165 in assay [6]; 47 in assay [7]. This compound came in with an IC50 in assay [1] of 42 nM.

In the case of `CC(=O)N1CCN(Cc2ccc(-c3ccn4c(-c5ccccc5)cnc4c3)cc2)CC1`, the IC50 in assay [2] came out at 300 nM; in assay [1], 77 nM.

In assay [1], `O=c1cc(-c2ccn3c(-c4ccccc4)cnc3c2)ccn1CCCO` came in with an IC50 of 120 nM. In other words, the sub-micromolar range.

In assay [1], `c1ccc(-c2ccn3c(-c4cncs4)cnc3c2)cc1` showed an IC50 of 99 nM. This IC50 and that of the compound before are within 1.5-fold of each other.

The record behind these values is ChEMBL document CHEMBL1146681, “Design and synthesis of 3,7-diarylimidazopyridines as inhibitors of the VEGF-receptor KDR” (Bioorg Med Chem Lett, 2004).
